Laboratory results taken from US11161855B2, “Tricyclic fused thiophene derivatives as JAK inhibitors” (Incyte Corporation, priority 2012, dated 2021).

What follows are compounds tested on human JAK1 (a.a. 837-1142) (assay: In vitro JAK kinase assay (HTRF), JAK1). Details: ratio of IC50s, 1 mM ATP.
Assay type: biochemical
Experimental: Compounds herein were tested for inhibitory activity of JAK targets according to the following in vitro assay described in Park et al., Analytical Biochemistry 1999, 269, 94-104. The catalytic domains of human JAK1 (a.a. 837-1142), JAK2 (a.a. 828-1132) and JAK3 (a.a. 781-1124) were expressed using baculovirus in insect cells and purified. The catalytic activity of JAK1, JAK2 or JAK3 was assayed by measuring the phosphorylation of a biotinylated peptide. The phosphorylated peptide was detected by homogenous time resolved fluorescence (HTRF). IC50s of compounds were measured for each kinase in the 40 μL reactions that contain the enzyme, ATP and 500 nM peptide in 50 mM Tris (pH 7.8) buffer with 100 mM NaCl, 5 mM DTT, and 0.1 mg/mL (0.01%) BSA. For the 1 mM IC50 measurements, ATP concentration in the reactions was 1 mM. Reactions were carried out at room temperature for 1 hour and then stopped with 20 μL 45 mM EDTA, 300 nM SA-APC, 6 nM Eu-Py20 in assay buffer (Perkin Elmer, Boston, Mass.). Binding to the Europium labeled antibody took place for 40 minutes and HTRF signal was measured on a PHERA star plate reader (BMG, Cary, N.C.). The Example compounds were each tested in the Example A assay (see Table 1 for data for the compounds of the examples as tested by the assay of Example A at 1 mM ATP).

JAK2/JAK1	SMILES
>10	C[C@@H](O)c1nc2cnc3ccsc3c2n1C1CCCC(CCC#N)C1 (stereo partly drawn) [Example 32, 3-(3-{2-[(1R)-1-Hydroxyethyl]-1H-imidazo[4,5-d]thieno[3,2-b]pyridin-1-yl}cyclohexyl)propanenitrile]
>7	Cc1nc2cnc3ccsc3n2c1-c1ccc(CC#N)cc1 [Example 33, [4-(7-Methylimidazo[1,2-a]thieno[3,2-e]pyrazin-8-yl)phenyl]acetonitrile]
>10	Cc1nc2cnc3ccsc3c2n1[C@H]1CC[C@H](CC#N)OC1 [Example 38, [(2R,5S)-5-(2-Methyl-1H-imidazo[4,5-d]thieno[3,2-b]pyridin-1-yl)tetrahydro-2H-pyran-2-yl]acetonitrile]
>10	CCc1nc2cnc3ccsc3c2n1[C@H]1CC[C@H](CC#N)OC1 [Example 39, [(2R,5S)-5-(2-Ethyl-1H-imidazo[4,5-d]thieno[3,2-b]pyridin-1-yl)tetrahydro-2H-pyran-2-yl]acetonitrile]
>10	CC(C)c1nc2cnc3ccsc3c2n1[C@H]1CC[C@H](CC#N)OC1 [Example 42, [(2R,5S)-5-(2-Isopropyl-1H-imidazo[4,5-d]thieno[3,2-b]pyridin-1-yl)tetrahydro-2H-pyran-2-yl]acetonitrile]
>10	N#CC[C@H]1CC[C@H](n2c(C3CC3)nc3cnc4ccsc4c32)CO1 [Example 43, [(2R,5S)-5-(2-Cyclopropyl-1H-imidazo[4,5-d]thieno[3,2-b]pyridin-1-yl)tetrahydro-2H-pyran-2-yl]acetonitrile]
>10	C[C@@H](O)c1nc2cnc3ccsc3c2n1[C@@H]1CC[C@@H](CC#N)OC1 [Example 44, ((2S,5R)-5-{2-[(1R)-1-Hydroxyethyl]-1H-imidazo[4,5-d]thieno[3,2-b]pyridin-1-yl}tetrahydro-2H-pyran-2-yl)acetonitrile]
>10	C[C@H](O)c1nc2cnc3ccsc3c2n1[C@H]1CC[C@H](CC#N)OC1 [Example 45, ((2R,5S)-5-{2-[(1S)-1-Hydroxyethyl]-1H-imidazo[4,5-d]thieno[3,2-b]pyridin-1-yl}tetrahydro-2H-pyran-2-yl)acetonitrile]
>3	Cc1nn2cnc3ccsc3c2c1-c1ccc(CC#N)cc1 [Example 46, [4-(8-Methylpyrazolo[1,5-c]thieno[2,3-e]pyrimidin-9-yl)phenyl]acetonitrile]
>10	CCc1nc2cnc3ccsc3c2n1[C@H]1CC[C@H](CC#N)CC1 [Example 47, [trans-4-(2-Ethyl-1H-imidazo[4,5-d]thieno[3,2-b]pyridin-1-yl)cyclohexyl]acetonitrile]
>7	Cc1nc2cnc3ccsc3c2n1[C@H]1CC[C@H](CC#N)CC1 [Example 48, [trans-4-(2-Methyl-1H-imidazo[4,5-d]thieno[3,2-b]pyridin-1-yl)cyclohexyl]acetonitrile]
>10	C[C@@H](O)c1nc2cnc3ccsc3c2n1[C@H]1CC[C@@H](CC#N)C1.O=C(O)C(F)(F)F [Example 49, ((1R,3S)-3-{2-[(1R)-1-Hydroxyethyl]-1H-imidazo[4,5-d]thieno[3,2-b]pyridin-1-yl}cyclopentyl)acetonitrile Trifluoroacetate]
>10	CCOC(=O)N1CCC[C@H](n2c([C@@H](C)O)nc3cnc4ccsc4c32)C1 [Example 50, Ethyl (3S)-3-{2-[(1R)-1-hydroxyethyl]-1H-imidazo[4,5-d]thieno[3,2-b]pyridin-1-yl}piperidine-1-carboxylate]
>10	C[C@@H](O)c1nc2cnc3ccsc3c2n1[C@H]1CCCN(C(=O)CC#N)C1.O=C(O)C(F)(F)F [Example 51, 3-((3S)-3-{2-[(1R)-1-Hydroxyethyl]-1H-imidazo[4,5-d]thieno[3,2-b]pyridin-1-yl}piperidin-1-yl)-3-oxopropanenitrile trifluoroacetate]
>10	C[C@@H](O)c1nc2cnc3ccsc3c2n1[C@H]1CCCN(C(=O)CCc2cn[nH]c2)C1 [Example 53, (1R)-1-(1-{(3S)-1-[3-(1H-Pyrazol-4-yl)propanoyl]piperidin-3-yl}-1H-imidazo[4,5-d]thieno[3,2-b]pyridin-2-yl)ethanol]
>10	C[C@@H](O)c1nc2cnc3ccsc3c2n1[C@H]1CCCN(C(=O)CCc2cccnc2)C1 [Example 54, (1R)-1-{1-[(3S)-1-(3-Pyridin-3-ylpropanoyl)piperidin-3-yl]-1H-imidazo[4,5-d]thieno[3,2-b]pyridin-2-yl}ethanol]
>10	CC(CC(=O)N1CCC[C@H](n2c([C@@H](C)O)nc3cnc4ccsc4c32)C1)c1ccccc1 (stereo partly drawn) [Example 55, (1R)-1-{1-[(3S)-1-(3-Phenylbutanoyl)piperidin-3-yl]-1H-imidazo[4,5-d]thieno[3,2-b]pyridin-2-yl}ethanol]

JAK2/JAK1	SMILES
>10	C[C@@H](O)c1nc2cnc3ccsc3c2n1[C@H]1CCCN(CCC#N)C1 [Example 56, 3-((3S)-3-{2-[(1R)-1-Hydroxyethyl]-1H-imidazo[4,5-d]thieno[3,2-b]pyridin-1-yl}piperidin-1-yl)propanenitrile]
>10	C[C@@H](O)c1nc2cnc3ccsc3c2n1[C@H]1CCCN(C(=O)CCc2ccccc2)C1 [Example 57]
>10	C[C@@H](O)c1nc2cnc3ccsc3c2n1[C@H]1CCCN(C(=O)CCC#N)C1 [Example 58, 4-((3S)-3-{2-[(1R)-1-Hydroxyethyl]-1H-imidazo[4,5-d]thieno[3,2-b]pyridin-1-yl}piperidin-1-yl)-4-oxobutanenitrile]
>10	C[C@@H](O)c1nc2cnc3ccsc3c2n1[C@H]1CCCN(C(=O)CCCC#N)C1 [Example 59, 5-((3S)-3-{2-[(1R)-1-Hydroxyethyl]-1H-imidazo[4,5-d]thieno[3,2-b]pyridin-1-yl}piperidin-1-yl)-5-oxopentanenitrile]
>10	C[C@@H](O)c1nc2cnc3ccsc3c2n1C1CCN(CCCC(F)(F)F)CC1 [Example 60, (1R)-1-{1-[1-(4,4,4-Trifluorobutyl)piperidin-4-yl]-1H-imidazo[4,5-d]thieno[3,2-b]pyridin-2-yl}ethanol]
>10	C[C@@H](O)c1nc2cnc3ccsc3c2n1C1CCN(CC#N)CC1.O=C(O)C(F)(F)F [Example 61, (4-{2-[(1R)-1-Hydroxyethyl]-1H-imidazo[4,5-d]thieno[3,2-b]pyridin-1-yl}piperidin-1-yl)acetonitrile trifluoroacetate]
>10	C[C@@H](O)c1nc2cnc3ccsc3c2n1[C@H]1CCN(CCC#N)C1 [Example 62, 3-((3S)-3-{2-[(1R)-1-Hydroxyethyl]-1H-imidazo[4,5-d]thieno[3,2-b]pyridin-1-yl}pyrrolidin-1-yl)propanenitrile]
>6	C[C@@H](O)c1nc2cnc3ccsc3c2n1[C@H]1CCN(C(=O)CC#N)C1 [Example 63, 3-((3S)-3-{2-[(1R)-1-Hydroxyethyl]-1H-imidazo[4,5-d]thieno[3,2-b]pyridin-1-yl}pyrrolidin-1-yl)-3-oxopropanenitrile]
>10	C[C@@H](O)c1nc2cnc3ccsc3c2n1[C@H]1CCN(CCCC(F)(F)F)C1 [Example 64, (1R)-1-{1-[(3S)-1-(4,4,4-Trifluorobutyl)pyrrolidin-3-yl]-1H-imidazo[4,5-d]thieno[3,2-b]pyridin-2-yl}ethanol]
>10	C[C@@H](O)c1nc2cnc3ccsc3c2n1[C@H]1CCN(CCCC#N)C1 [Example 65, 4-((3S)-3-{2-[(1R)-1-Hydroxyethyl]-1H-imidazo[4,5-d]thieno[3,2-b]pyridin-1-yl}pyrrolidin-1-yl)butanenitrile]
>10	C[C@@H](O)c1nc2cnc3ccsc3c2n1[C@H]1CCN(CCCCC#N)C1 [Example 66, 5-((3S)-3-{2-[(1R)-1-Hydroxyethyl]-1H-imidazo[4,5-d]thieno[3,2-b]pyridin-1-yl}pyrrolidin-1-yl)pentanenitrile]
>10	C[C@@H](O)c1nc2cnc3ccsc3c2n1[C@H]1CC[C@H](CC#N)[C@H](N)C1 [Example 67, ((1R,2R,4S)-2-Amino-4-{2-[(1R)-1-hydroxyethyl]-1H-imidazo[4,5-d]thieno[3,2-b]pyridin-1-yl}cyclohexyl)acetonitrile]
>10	CC(N)c1nc2cnc3ccsc3c2n1[C@H]1CC[C@H](CC#N)OC1.O=C(O)C(F)(F)F (stereo partly drawn) [Example 68, {(2R,5S)-5-[2-(1-Aminoethyl)-1H-imidazo[4,5-d]thieno[3,2-b]pyridin-1-yl]tetrahydro-2H-pyran-2-yl}acetonitrile Trifluoro Acetate]
>10	CC(=O)NC(C)c1nc2cnc3ccsc3c2n1[C@H]1CC[C@H](CC#N)OC1 (stereo partly drawn) [Example 69, N-(1-{1-[(3S,6R)-6-(Cyanomethyl)tetrahydro-2H-pyran-3-yl]-1H-imidazo[4,5-d]thieno[3,2-b]pyridin-2-yl}ethyl) acetamide]
>10	CNC(C)c1nc2cnc3ccsc3c2n1[C@H]1CC[C@H](CC#N)OC1 (stereo partly drawn) [Example 70, ((2R,5S)-5-{2-[1-(Methylamino)ethyl]-1H-imidazo[4,5-d]thieno[3,2-b]pyridin-1-yl}tetrahydro-2H-pyran-2-yl)acetonitrile]
>10	CC(F)c1nc2cnc3ccsc3c2n1[C@H]1CC[C@H](CC#N)OC1 (stereo partly drawn) [Example 71, {(2R,5S)-5-[2-(1-Fluoroethyl)-1H-imidazo[4,5-d]thieno[3,2-b]pyridin-1-yl]tetrahydro-2H-pyran-2-yl}acetonitrile]
